# From patent US10745382B2 (BRISTOL-MYERS SQUIBB COMPANY, priority 2015, dated 2020)
# Target: T1, PD-1/PD-L1 (Homo sapiens, UniProt Q9NZQ7)
# T1 construct: made in house; host or cells: HEK293T
# Test: PD-1/PD-L1 Homogenous Time-Resolved Fluorescence (HTRF) binding assay
# Details: PD-L1-His 10 nM, PD-1-Ig 20 nM; value given as range class; read-out: Range or IC50
# Method in brief: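 Read-out is time-resolved FRET between europium cryptate-labelled anti-Ig (1 nM final) and APC-labelled anti-His (20 nM final), both dispensed onto the binding mix. Assay buffer: dPBS containing 0.1% bovine serum albumin and 0.05% Tween-20.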
# T1 sequence (Q9NZQ7 with tags, fused parts or gaps): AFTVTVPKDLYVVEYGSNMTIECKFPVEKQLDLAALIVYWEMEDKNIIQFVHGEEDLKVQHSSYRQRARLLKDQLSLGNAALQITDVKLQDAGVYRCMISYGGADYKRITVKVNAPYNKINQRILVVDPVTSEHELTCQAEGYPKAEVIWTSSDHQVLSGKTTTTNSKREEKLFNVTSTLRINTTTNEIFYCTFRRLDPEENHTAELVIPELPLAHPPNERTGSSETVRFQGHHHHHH
row,SMILES,IC50
1,"Cc1c(COc2cc(OCc3cncc(C#N)c3)c(CN[C@H](CO)C(=O)O)cc2Cl)cccc1-c1cccc(OCCCN2CCC(CO)(C(=O)O)C2)c1C (stereo partly drawn) [Example 1052, 1-(3-((3′-((4-((((R)-1-carboxy-2-hydroxyethyl)amino)methyl)-2-chloro-5-((5-cyanopyridin-3-yl)methoxy)phenoxy)methyl)-2,2′-dimethyl-[1,1′-biphenyl]-3-yl)oxy)propyl)-3-(hydroxymethyl)pyrrolidine-3-carboxylic Acid]",0.21 to 10 nM
2,"Cc1c(COc2cc(OCc3cncc(C(N)=O)c3)c(CN[C@H](CO)C(=O)O)cc2Cl)cccc1-c1cccc(OCCCN2CCC(CO)(C(=O)O)C2)c1C (stereo partly drawn) [Example 1053, 1-(3-((3′-((5-((5-carbamoylpyridin-3-yl)methoxy)-4-((((R)-1-carboxy-2-hydroxyethyl)amino)methyl)-2-chlorophenoxy)methyl)-2,2′-dimethyl-[1,1′-biphenyl]-3-yl)oxy)propyl)-3-(hydroxymethyl)pyrrolidine-3-carboxylic Acid]",0.21 to 10 nM
3,"Cc1c(COc2cc(OCc3cncc(C#N)c3)c(CN[C@](C)(CO)C(=O)O)cc2Cl)cccc1-c1cccc(OCCCN2CCC(O)(C(=O)O)C2)c1C (stereo partly drawn) [Example 1054, 1-(3-((3′-((4-((((R)-2-carboxy-1-hydroxypropan-2-yl)amino)methyl)-2-chloro-5-((5-cyanopyridin-3-yl)methoxy)phenoxy)methyl)-2,2′-dimethyl-[1,1′-biphenyl]-3-yl)oxy)propyl)-3-hydroxypyrrolidine-3-carboxylic Acid]",0.21 to 10 nM
4,"COC(=O)C1(O)CCN(CCCOc2cccc(-c3cccc(COc4cc(OCc5cncc(S(C)(=O)=O)c5)c(CN[C@](C)(CO)C(=O)O)cc4Cl)c3C)c2C)C1 (stereo partly drawn) [Example 1055, (2R)-2-((5-chloro-4-((3′-(3-(3-hydroxy-3-(methoxycarbonyl)pyrrolidin-1-yl)propoxy)-2,2′-dimethyl-[1,1′-biphenyl]-3-yl)methoxy)-2-((5-(methylsulfonyl)pyridin-3-yl)methoxy)benzyl)amino)-3-hydroxy-2-methylpropanoic Acid]",0.21 to 10 nM
5,"COC(=O)C1(O)CCN(CCCOc2cccc(-c3cccc(COc4cc(OCc5cncc(S(C)(=O)=O)c5)c(CN[C@H](CO)C(=O)O)cc4Cl)c3C)c2C)C1 (stereo partly drawn) [Example 1056, (2R)-2-((5-chloro-4-((3′-(3-(3-hydroxy-3-(methoxycarbonyl)pyrrolidin-1-yl)propoxy)-2,2′-dimethyl-[1,1′-biphenyl]-3-yl)methoxy)-2-((5-(methylsulfonyl)pyridin-3-yl)methoxy)benzyl)amino)-3-hydroxypropanoic Acid]",0.21 to 10 nM
6,"Cc1c(COc2cc(OCc3cncc(C(N)=O)c3)c(CN[C@](C)(CO)C(=O)O)cc2Cl)cccc1-c1cccc(OCCCN2CCC(O)(C(=O)O)C2)c1C (stereo partly drawn) [Example 1057, 1-(3-((3′-((5-((5-carbamoylpyridin-3-yl)methoxy)-4-((((R)-2-carboxy-1-hydroxypropan-2-yl)amino)methyl)-2-chlorophenoxy)methyl)-2,2′-dimethyl-[1,1′-biphenyl]-3-yl)oxy)propyl)-3-hydroxypyrrolidine-3-carboxylic Acid]",0.21 to 10 nM
7,"Cc1c(COc2cc(OCc3cncc(C#N)c3)c(CN[C@](C)(CO)C(=O)O)cc2Cl)cccc1-c1cccc(OCCCN2CCC(O)CC2)c1C [Example 1059, (R)-2-((5-chloro-2-((5-cyanopyridin-3-yl)methoxy)-4-((3′-(3-(4-hydroxypiperidin-1-yl)propoxy)-2,2′-dimethyl-[1,1′-biphenyl]-3-yl)methoxy)benzyl)amino)-3-hydroxy-2-methylpropanoic Acid]",0.21 to 10 nM
8,"Cc1c(COc2cc(OCc3cncc(C#N)c3)c(CN[C@H](CO)C(=O)O)cc2Cl)cccc1-c1cccc(OCCCN2CCC(O)CC2)c1C [Example 1060, (R)-2-((5-chloro-2-((5-cyanopyridin-3-yl)methoxy)-4-((3′-(3-(4-hydroxypiperidin-1-yl)propoxy)-2,2′-dimethyl-[1,1′-biphenyl]-3-yl)methoxy)benzyl)amino)-3-hydroxypropanoic Acid]",0.21 to 10 nM
9,"Cc1c(COc2cc(OCc3cncc(C#N)c3)c(CN3CCCC[C@H]3C(=O)O)cc2Cl)cccc1-c1cccc(OCCCN2CCC(O)(C(=O)O)CC2)c1C [Example 1061, (S)-1-(4-((3′-(3-(4-carboxy-4-hydroxypiperidin-1-yl)propoxy)-2,2′-dimethyl-[1,1′-biphenyl]-3-yl)methoxy)-5-chloro-2-((5-cyanopyridin-3-yl)methoxy)benzyl)piperidine-2-carboxylic Acid]",0.21 to 10 nM
10,"COC(=O)[C@@H]1C[C@@H](O)CN1CCCOc1cccc(-c2cccc(COc3cc(OCc4cncc(S(C)(=O)=O)c4)c(CN[C@](C)(CO)C(=O)O)cc3Cl)c2C)c1Cl [Example 1068, (R)-2-((5-chloro-4-((2′-chloro-3′-(3-((2S,4R)-4-hydroxy-2-(methoxycarbonyl)pyrrolidin-1-yl)propoxy)-2-methyl-[1,1′-biphenyl]-3-yl)methoxy)-2-((5-(methylsulfonyl)pyridin-3-yl)methoxy)benzyl)amino)-3-hydroxy-2-methylpropanoic Acid]",0.21 to 10 nM
11,"COC(=O)[C@@H]1C[C@@H](O)CN1CCCOc1cccc(-c2cccc(COc3cc(OCc4cncc(S(C)(=O)=O)c4)c(CN4CCCC[C@H]4C(=O)O)cc3Cl)c2C)c1Cl [Example 1069, (S)-1-(5-chloro-4-((2′-chloro-3′-(3-((2S,4R)-4-hydroxy-2-(methoxycarbonyl)pyrrolidin-1-yl)propoxy)-2-methyl-[1,1′-biphenyl]-3-yl)methoxy)-2-((5-(methylsulfonyl)pyridin-3-yl)methoxy)benzyl)piperidine-2-carboxylic Acid]",0.21 to 10 nM
12,"Cc1cc(OCCCN2CC[C@@H](O)C2)ccc1-c1cccc(COc2cc(OCc3cncc(C#N)c3)c(CN[C@H](CO)C(=O)O)cc2Cl)c1C [Example 1070, (R)-2-((5-chloro-2-((5-cyanopyridin-3-yl)methoxy)-4-((4′-(3-((R)-3-hydroxypyrrolidin-1-yl)propoxy)-2,2′-dimethyl-[1,1′-biphenyl]-3-yl)methoxy)benzyl)amino)-3-hydroxypropanoic Acid]",0.21 to 10 nM
13,"Cc1cc(OCCCN2CC[C@@H](O)C2)ccc1-c1cccc(COc2cc(OCc3cncc(C#N)c3)c(CN3CCCC[C@H]3C(=O)O)cc2Cl)c1C [Example 1071, (S)-1-(5-chloro-2-((5-cyanopyridin-3-yl)methoxy)-4-((4′-(3-((R)-3-hydroxypyrrolidin-1-yl)propoxy)-2,2′-dimethyl-[1,1′-biphenyl]-3-yl)methoxy)benzyl)piperidine-2-carboxylic Acid]",0.21 to 10 nM
14,"COC(=O)C1CN(CCCOc2cccc(-c3cccc(COc4cc(OCc5cncc(S(C)(=O)=O)c5)c(CN5CCCC[C@H]5C(=O)O)cc4Cl)c3C)c2C)CC1O (stereo partly drawn) [Example 1072, (2S)-1-(5-chloro-4-((3′-(3-(3-hydroxy-4-(methoxycarbonyl)pyrrolidin-1-yl)propoxy)-2,2′-dimethyl-[1,1′-biphenyl]-3-yl)methoxy)-2-((5-(methylsulfonyl)pyridin-3-yl)methoxy)benzyl)piperidine-2-carboxylic Acid]",0.21 to 10 nM
15,"COC(=O)C1CN(CCCOc2cccc(-c3cccc(COc4cc(OCc5cncc(S(C)(=O)=O)c5)c(CN[C@](C)(CO)C(=O)O)cc4Cl)c3C)c2C)CC1O (stereo partly drawn) [Example 1073, (2R)-2-((5-chloro-4-((3′-(3-(3-hydroxy-4-(methoxycarbonyl)pyrrolidin-1-yl)propoxy)-2,2′-dimethyl-[1,1′-biphenyl]-3-yl)methoxy)-2-((5-(methylsulfonyl)pyridin-3-yl)methoxy)benzyl)amino)-3-hydroxy-2-methylpropanoic Acid]",0.21 to 10 nM
16,"Cc1c(COc2cc(OCc3cncc(S(C)(=O)=O)c3)c(CN3CCCC[C@H]3C(=O)O)cc2Cl)cccc1-c1cccc(OCCCN2CC(O)C(C(=O)O)C2)c1C (stereo partly drawn) [Example 1074, (2S)-1-(4-((3′-(3-(3-carboxy-4-hydroxypyrrolidin-1-yl)propoxy)-2,2′-dimethyl-[1,1′-biphenyl]-3-yl)methoxy)-5-chloro-2-((5-(methylsulfonyl)pyridin-3-yl)methoxy)benzyl)piperidine-2-carboxylic Acid]",0.21 to 10 nM
17,"Cc1c(COc2cc(OCc3cncc(S(C)(=O)=O)c3)c(CN[C@](C)(CO)C(=O)O)cc2Cl)cccc1-c1cccc(OCCCN2CC(O)C(C(=O)O)C2)c1C (stereo partly drawn) [Example 1075, 1-(3-((3′-((4-((((R)-2-carboxy-1-hydroxypropan-2-yl)amino)methyl)-2-chloro-5-((5-(methylsulfonyl)pyridin-3-yl)methoxy)phenoxy)methyl)-2,2′-dimethyl-[1,1′-biphenyl]-3-yl)oxy)propyl)-4-hydroxypyrrolidine-3-carboxylic Acid]",0.21 to 10 nM
18,"CNC(=O)C1CCN(CCCOc2cccc(-c3cccc(COc4cc(OCc5cncc(C#N)c5)c(CN[C@](C)(CO)C(=O)O)cc4Cl)c3C)c2Cl)CC1 [Example 1076, (R)-2-((5-chloro-4-((2′-chloro-2-methyl-3′-(3-(4-(methylcarbamoyl)piperidin-1-yl)propoxy)-[1,1′-biphenyl]-3-yl)methoxy)-2-((5-cyanopyridin-3-yl)methoxy)benzyl)amino)-3-hydroxy-2-methylpropanoic Acid]",0.21 to 10 nM
19,"CNC(=O)C1CCN(CCCOc2cccc(-c3cccc(COc4cc(OCc5cncc(C#N)c5)c(CN5CCCC[C@H]5C(=O)O)cc4Cl)c3C)c2Cl)CC1 [Example 1077, (S)-1-(5-chloro-4-((2′-chloro-2-methyl-3′-(3-(4-(methylcarbamoyl)piperidin-1-yl)propoxy)-[1,1′-biphenyl]-3-yl)methoxy)-2-((5-cyanopyridin-3-yl)methoxy)benzyl)piperidine-2-carboxylic Acid]",0.21 to 10 nM
